#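 GI50 = concentration required for 50% inhibition of growth. At the TGI there is no net growth.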
# Experiments:
# Assay in all cases: growth of human tumour cells (NCI), 384-well format
# [1] = test system: NCI-H522 lung
# [2] = test system: HL-60(TB) leukemia
# [3] = test system: HOP-92 NSCLC
# [4] = test system: SK-OV-3 ovarian
# [5] = test system: NCI-H226 lung
# [6] = test system: PC-3 prostate
# [7] = test system: EKVX NSCLC
# [8] = test system: KM12 colon
# [9] = test system: MDA-MB-231 breast
# [10] = test system: UACC-62 melanoma
# [11] = test system: SF-539 CNS
# [12] = test system: 786-0 renal
# [13] = test system: HT29 colon
# [14] = test system: ACHN renal
# [15] = test system: MDA-MB-435 melanoma
# [16] = test system: HCC-2998 colon
# [17] = test system: OVCAR-8 ovarian
# [18] = test system: RXF 393 renal
# [19] = test system: SNB-19 CNS
# [20] = test system: NCI-H460 NSCLC
# [21] = test system: UACC-257 melanoma
# [22] = test system: HOP-62 NSCLC
# [23] = test system: M14 melanoma
# [24] = test system: HCT-116 colon
# [25] = test system: HS 578T breast
# [26] = test system: DU-145 prostate
# [27] = test system: SF-268 CNS
# [28] = test system: SF-295 CNS
# [29] = test system: OVCAR-3 ovarian
# [30] = test system: LOX IMVI melanoma
# [31] = test system: SK-MEL-5 melanoma
# [32] = test system: U251 glioblastoma
# [33] = test system: MOLT-4 leukemia
# [34] = test system: RPMI-8226 leukemia
# [35] = test system: A549 NSCLC
# [36] = test system: SK-MEL-28 melanoma
# [37] = test system: NCI-H322M lung
# [38] = test system: A498 renal
# [39] = test system: SNB-75 CNS
# [40] = test system: OVCAR-5 ovarian
# [41] = test system: T-47D breast
# [42] = test system: CAKI-1 renal
# [43] = test system: BT-549 breast
# [44] = test system: HCT-15 colon
# [45] = test system: MDA-MB-468 breast
# [46] = test system: TK-10 renal
# [47] = test system: MCF7 breast
# [48] = test system: COLO 205 colon
# [49] = test system: UO-31 renal
# [50] = test system: SN12C renal
# [51] = test system: MALME-3M melanoma
# [52] = test system: SW-620 colon
# [53] = test system: OVCAR-4 ovarian
# [54] = test system: NCI-H23 lung
# [55] = test system: SR leukemia
# [56] = test system: NCI/ADR-RES ovarian
# [57] = test system: IGROV1 ovarian
structure (smiles),measurement,setting,value
COc1cc2nccc(Oc3ccc(NC(=O)NC4CC4)c(Cl)c3)c2cc1C(N)=O,GI50,[1],5.29 µM
same,TGI,[1],20.6 µM
same,GI50,[2],25.6 µM
same,TGI,[2],68.9 µM
same,GI50,[3],14.5 µM
same,TGI,[3],72.1 µM
same,GI50,[4],35.9 µM
same,TGI,[4],> 100 µM
same,GI50,[5],817 nM
same,TGI,[5],22.2 µM
same,GI50,[6],61.7 µM
same,TGI,[6],> 100 µM
same,GI50,[7],29.1 µM
same,TGI,[7],> 100 µM
same,GI50,[8],5.76 µM
same,TGI,[8],> 100 µM
same,GI50,[9],17.3 µM
same,TGI,[9],59.4 µM
same,GI50,[10],39.7 µM
same,TGI,[10],> 100 µM
same,GI50,[11],2410 nM
same,TGI,[11],69.4 µM
same,GI50,[12],22.9 µM
same,TGI,[12],> 100 µM
same,GI50,[13],> 100 µM
same,TGI,[13],> 100 µM
same,GI50,[14],11.6 µM
same,TGI,[14],24.2 µM
same,GI50,[15],74.1 µM
same,TGI,[15],> 100 µM
same,GI50,[16],> 100 µM
same,TGI,[16],> 100 µM
same,GI50,[17],25.5 µM
same,TGI,[17],> 100 µM
same,GI50,[18],3.53 µM
same,TGI,[18],25.1 µM
same,GI50,[19],44.6 µM
same,TGI,[19],> 100 µM
same,GI50,[20],41 µM
same,TGI,[20],> 100 µM
same,GI50,[21],38.3 µM
same,TGI,[21],> 100 µM
same,GI50,[22],38.2 µM
same,TGI,[22],> 100 µM
same,GI50,[23],23.4 µM
same,TGI,[23],64.9 µM
same,GI50,[24],38.3 µM
same,TGI,[24],> 100 µM
same,GI50,[25],12.2 µM
same,TGI,[25],28 µM
same,GI50,[26],26.1 µM
same,TGI,[26],> 100 µM
same,GI50,[27],15.9 µM
same,TGI,[27],44.6 µM
same,GI50,[28],30.1 µM
same,TGI,[28],> 100 µM
same,GI50,[29],17.9 µM
same,TGI,[29],78 µM
same,GI50,[30],52.2 µM
same,TGI,[30],> 100 µM
same,GI50,[31],17.8 µM
same,TGI,[31],55.5 µM
same,GI50,[32],30.7 µM
same,TGI,[32],> 100 µM
same,GI50,[33],5.38 µM
same,TGI,[33],23.3 µM
same,GI50,[34],11.7 µM
same,TGI,[34],63 µM
same,GI50,[35],40 µM
same,TGI,[35],> 100 µM
same,GI50,[36],72.8 µM
same,TGI,[36],> 100 µM
same,GI50,[37],48.3 µM
same,TGI,[37],> 100 µM
same,GI50,[38],22 µM
same,TGI,[38],69.6 µM
same,GI50,[39],12.1 µM
same,TGI,[39],38.3 µM
same,GI50,[40],50 µM
same,TGI,[40],> 100 µM
same,GI50,[41],16.8 µM
same,TGI,[41],78.7 µM
same,GI50,[42],9.97 µM
same,TGI,[42],35.1 µM
same,GI50,[43],3.76 µM
same,TGI,[43],20.4 µM
same,GI50,[44],25.8 µM
same,TGI,[44],> 100 µM
same,GI50,[45],11.5 µM
same,TGI,[45],66.2 µM
same,GI50,[46],51.5 µM
same,TGI,[46],> 100 µM
same,GI50,[47],35.4 µM
same,TGI,[47],> 100 µM
same,GI50,[48],69.5 µM
same,TGI,[48],> 100 µM
same,GI50,[49],15.9 µM
same,TGI,[49],71.1 µM
same,GI50,[50],13.4 µM
same,TGI,[50],86.9 µM
same,GI50,[51],19.3 µM
same,TGI,[51],77.8 µM
same,GI50,[52],77.4 µM
same,TGI,[52],> 100 µM
same,GI50,[53],14.7 µM
same,TGI,[53],44.7 µM
same,GI50,[54],14.2 µM
same,TGI,[54],55.8 µM
same,GI50,[55],31.4 µM
same,TGI,[55],50.9 µM
same,GI50,[56],63.8 µM
same,TGI,[56],> 100 µM
same,GI50,[57],19.2 µM
same,TGI,[57],97.3 µM

# From PubChem BioAssay (NCI)
